Test results from US20010033841A1, “Modulating platelet function” (priority 1998, published 2001).

Experiments:
[1] = tested on: SDF-1 induced platelet aggregation; assay: Inhibition of SDF-1 induced platelet aggregation; format: cell-based, human
Description: (§1) Blood collection and platelet preparation. Human blood was collected from antecubital veins of healthy male or female, aspirin-free volunteers into syringes containing heparin (10 units/ml final concentration) for flow cytometry studies or sodium citrate (0.38% final concentration) for aggregation studies. Platelet rich plasma (PRP) was prepared by centrifugation of whole blood at 150 g for 15 minutes. Platelet poor plasma (PPP) was prepared by centrifugation of PRP at 1200 g for 15 minutes.
(§2) Aggregation studies. Experiments were performed using a Chrono-Log model 560 vs or 490-2D aggregometer (Havertown, Pa.). Aliquots of PRP (0.50 ml or 0.45 ml) with a platelet concentration of […] were incubated at 37° C. and stirred at 1000 rpm. Chemokines (PeproTech Inc., Rocky Hill, N.J., except SDF-1β, which was obtained from Genetics Institute, Boston, Mass.) were added and aggregation was measured as a percent change in optical density, with the instrument calibrated to yield 0% change in optical density for PRP and with the PPP 100% standard for change in optical density. Aggregation scale was set so that maximal aggregation gave 85-90% chart deflection. Inhibition experiments were done using CXCR4 mAb 12G5 (R&D, Minneapolis, Minn.), polyclonal anti-SDF-1 (R&D, Minneapolis, Minn.), pertussis toxin (Sigma, St. Louis, Mo.), wortmannin (Sigma), genestein (Sigma), and aspirin (Sigma). DMSO was used as vehicle for genestein and wortmannin and 1N NaOH was used as a vehicle for aspirin.

[2] = tested on: resting T-cells, monocytes, B cell precursors, natural killer cells and CD34+ stem cells; details: Bleul et al. 1996; Campbell et al. 1998; cited from earlier work
[3] = tested on: human platelets; assay: Chemokine-induced platelet aggregation in platelet rich plasma (aggregometer); format: cell-based
Description: as §1, §2

[4] = tested on: human platelets; assay: SDF-1 induced calcium flux in fura-2 loaded platelets; format: cell-based; details: SDF-1 50-100 nM, fura-2 340/380 ratio
Description: Calcium flux. Fura-2 loaded platelets were prepared from acid citrate dextrose anti-coagulated blood (Rink et al., J. Physiol. 393: 513-24, 1987). PRP was collected by centrifugation for 15 minutes at 200 g and 100 μM aspirin was added. Platelets were then loaded with fura-2 by incubating PRP with 2 μM acetoxymethyl ester of fura-2 (fura-2 AM; Molecular Probes, Inc., Eugene, Oreg.) for 45 minutes at 37° C. in the dark. PRP was then centrifuged at 1500 g for 10 minutes and the pellet washed and resuspended in a buffer containing 145 mM NaCl, 4 mM KCl, 1 mM NaH2PO4, 0.8 mM MgCl2, 1.8 mM CaCl2, 25 mM Hepes and 22 mM glucose. Changes in cytosolic free calcium were determined after addition of SDF-1 (500 or 1000 ng/ml) by monitoring the excitation fluorescence intensity emitted at 510 nm in response to sequential excitation at 340 nm and 380 nm using a Delta RAM (Random Access Monochromator) fluorimeter (Photon Technology International, Monmouth Junction, N.J.). The data are presented as the relative ratio of fluorescence at 340/380 nm.

CC(=O)Oc1ccccc1C(=O)O [Aspirin, aspirin]
effect on SDF-1 induced platelet aggregation ([1]; aspirin 1 mM, FIG. 5A): inhibited SDF-1 induced secondary aggregation

O=c1c(-c2ccc(O)cc2)coc2cc(O)cc(O)c12 [Genestein, genestein]
effect on SDF-1 induced platelet aggregation ([1]; genestein 200 μM, 5 minutes preincubation, FIG. 5B): decreased SDF-1 platelet aggregation

SDF-1: chemokine stromal derived factor-1; α or β form not specified at the place
concentration giving maximal chemotaxis [2]: 10 to 100 nM
induction of platelet aggregation ([3]; 40 nM chemokine, FIG. 1A): induced platelet aggregation
donors responding with only primary aggregation ([3]; out of twelve donors tested): two
donors with full primary and secondary aggregation response ([3]; out of twelve donors tested): ten
increase in cytosolic calcium [4]: induced an increase in cytosolic calcium

SDF-1α
concentration at which a primary and secondary response was observed ([3]; FIGS. 1B and 1C): 12.5 to 25 nM
concentration that only induced the primary phase of aggregation ([3]; FIGS. 1B and 1C): 6.2 nM

pertussis toxin
effect on SDF-1 induced platelet aggregation ([1]; pertussis toxin 1.7 nM, 30 minute preincubation, SDF-1α 80 ng/ml, FIG. 4B): blocked
